From ChEMBL document CHEMBL1158200, “Coriadienin, the first annonaceous acetogenin with two double bonds isolated from Annona coriaceae” (J Nat Prod, 1996)
Converted amounts (≈) assume the structure as drawn.

Tests used:
[1] = Cytotoxicity against african green monkey Vero cells; type: cell-based; settings: chlorocebus sabaeus, read-out: ED50 (the source's name)
[2] = test system: KB; assay: Cytotoxicity against human KB cells; type: functional

Compound | CC50 [1] | ED50 [2] | EC50 ([2]; Homo sapiens, KB, read-out: ED50 (the source's name))
CCCCCCCCCCCC[C@H](O)[C@@H](O)CC/C=C\CC[C@@H](O)[C@H]1CCC(CCCCCC(O)CC2=CC(C)OC2=O)O1 (some centres not stated) [CORIACIN] | 0.0057 µg/mL (≈ 0.00915 µM) | <3 ×10⁻⁷ ug/ml | 
CCCCCCCCCCCC[C@H](O)[C@@H](O)CCC1OC1CCC1OC1CCC(O)CCCCCC(O)CC1=CC(C)OC1=O (some centres not stated) [BISEPOXYCORIADIENIN] | 0.013 µg/mL (≈ 0.0203 µM) | 2.5 ×10⁻⁷ ug/ml | 
CCCCCCCCCCCC[C@H](O)[C@@H](O)CC/C=C\CC[C@@H](O)[C@H]1CCC(CCCCCCCC2=CC(C)OC2=O)O1 (some centres not stated) | 0.05 µg/mL (≈ 0.0824 µM) | 6 ×10⁻⁴ ug/ml | 
CCCCCCCCCCCCCCC(O)C(O)CC[C@H](O)[C@H]1CC[C@H](CCCCC[C@@H](O)CC2=C[C@H](C)OC2=O)O1 (some centres not stated) [GIGANTETRONENIN] | 0.0057 µg/mL (≈ 0.00955 µM) | <3 ×10⁻⁷ ug/ml | 
CCCCCCCCCCCC[C@H](O)[C@@H](O)CC/C=C\CC/C=C\CCC(O)CCCCCC(O)CC1=CC(C)OC1=O (some centres not stated) [CORIADIENIN] | 0.15 µg/mL (≈ 0.247 µM) | 1.6 ×10⁻⁶ ug/ml | 
CC(=O)O[C@H]1C(=O)[C@@]2(C)[C@H]([C@H](OC(=O)c3ccccc3)[C@]3(O)C[C@H](OC(=O)[C@H](O)[C@@H](NC(=O)c4ccccc4)c4ccccc4)C(C)=C1C3(C)C)[C@]1(OC(C)=O)CO[C@@H]1C[C@@H]2O [PACLITAXEL] | > 0.3 µg/mL |  | 0.02 µg/mL (≈ 0.0234 µM)
